Test results from patent US6949542B2, “Dihydro-benzo[b][1,4]diazepin-2-one derivatives” (Hoffman-La Roche Inc., priority 2002, dated 2005).

| SMILES | melting point [°C] |
| --- | --- |
| CNc1nc(C)cc(-c2cccc(C3=Nc4cc(C)c(C(F)(F)F)cc4NC(=O)C3)c2)n1 [Example 318, 7-Methyl-4-[3-(6-methyl-2-methylamino-pyrimidin-4-yl)-phenyl]-8-trifluoromethyl-1,3-dihydro-benzo[b][1,4]diazepin-2-one] | 241 to 243 |
| CNc1nc(C)cc(-c2cccc(C3=Nc4cc(C)c(Cl)cc4NC(=O)C3)c2)n1 [Example 319, 8-Chloro-7-methyl-4-[3-(6-methyl-2-methylamino-pyrimidin-4-yl)-phenyl]-1,3-dihydro-benzo[b][1,4]diazepin-2-one] | 235 to 237 |
| Cc1cc(-c2cccc(C3=Nc4cc(C)c(C(F)(F)F)cc4NC(=O)C3)c2)nc(N(C)C)n1 [Example 320, 4-[3-(2-Dimethylamino-6-methyl-pyrimidin-4-yl)-phenyl]-7-methyl-8-trifluoromethyl-1,3-dihydro-benzo[b][1,4]diazepin-2-one] | 248 to 252 |
| Cc1cc(-c2cccc(C3=Nc4cc(C)c(Cl)cc4NC(=O)C3)c2)nc(N(C)C)n1 [Example 321, 8-Chloro-4-[3-(2-dimethylamino-6-methyl-pyrimidin-4-yl)-phenyl]-7-methyl-1,3-dihydro-benzo[b][1,4]diazepin-2-one] | 248 to 250 |
| Cc1cc(-c2cccc(C3=Nc4cc(C)c(Cl)cc4NC(=O)C3)c2)nc(NCCO)n1 [Example 323, 8-Chloro-4-{3-[2-(2-hydroxy-ethylamino)-6-methyl-pyrimidin-4-yl]-phenyl}-7-methyl-1,3-dihydro-benzo[b][1,4]diazepin-2-one] | 197 to 199 |
| COCCNc1nc(C)cc(-c2cccc(C3=Nc4cc(C)c(C(F)(F)F)cc4NC(=O)C3)c2)n1 [Example 324, 4-{3-[2-(2-Methoxy-ethylamino)-6-methyl-pyrimidin-4-yl]-phenyl}-7-methyl-8-trifluoromethyl-1,3-dihydro-benzo[b][1,4]diazepin-2-one] | 236 to 238 |
| COCCNc1nc(C)cc(-c2cccc(C3=Nc4cc(C)c(Cl)cc4NC(=O)C3)c2)n1 [Example 325, 8-Chloro-4-{3-[2-(2-methoxy-ethylamino)-6-methyl-pyrimidin-4-yl]-phenyl}-7-methyl-1,3-dihydro-benzo[b][1,4]diazepin-2-one] | 222 to 224 |
| Cc1cc2c(cc1C(F)(F)F)NC(=O)CC(c1cccc(-c3cc(N)ncn3)c1)=N2 [Example 328, 4-[3-(6-Amino-pyrimidin-4-yl)-phenyl]-7-methyl-8-trifluoromethyl-1,3-dihydro-benzo[b][1,4]diazepin-2-one] | 201 to 205 |
| Cc1cc2c(cc1Cl)NC(=O)CC(c1cccc(-c3cc(N)ncn3)c1)=N2 [Example 329, 4-[3-(6-Amino-pyrimidin-4-yl)-phenyl]-8-chloro-7-methyl-1,3-dihydro-benzo[b][1,4]diazepin-2-one] | 228 to 233 |
| CNc1cc(-c2cccc(C3=Nc4cc(C)c(C(F)(F)F)cc4NC(=O)C3)c2)ncn1 [Example 330, 7-Methyl-4-[3-(6-methylamino-pyrimidin-4-yl)-phenyl]-8-trifluoromethyl-1,3-dihydro-benzo[b][1,4]diazepin-2-one] | 232 to 233 |
| CNc1cc(-c2cccc(C3=Nc4cc(C)c(Cl)cc4NC(=O)C3)c2)ncn1 [Example 331, 8-Chloro-7-methyl-4-[3-(6-methylamino-pyrimidin-4-yl)-phenyl]-1,3-dihydro-benzo[b][1,4]diazepin-2-one] | 240 to 243 |
| Cc1cc2c(cc1C(F)(F)F)NC(=O)CC(c1cccc(-c3cc(N(C)C)ncn3)c1)=N2 [Example 332, 4-[3-(6-Dimethylamino-pyrimidin-4-yl)-phenyl]-7-methyl-8-trifluoromethyl-1,3-dihydro-benzo[b][1,4]diazepin-2-one] | 239 to 242 |
| Cc1cc2c(cc1Cl)NC(=O)CC(c1cccc(-c3cc(N(C)C)ncn3)c1)=N2 [Example 333, 8-Chloro-4-[3-(6-dimethylamino-pyrimidin-4-yl)-phenyl]-7-methyl-1,3-dihydro-benzo[b][1,4]diazepin-2-one] | 226 to 228 |

Second part, the compound after the results:

| melting point [°C] | SMILES |
| --- | --- |
| 211 to 213 | COCCNc1cc(-c2cccc(C3=Nc4cc(C)c(Cl)cc4NC(=O)C3)c2)ncn1 [Example 334, 8-Chloro-4-{3-[6-(2-methoxy-ethylamino)-pyrimidin-4-yl]-phenyl}-7-methyl-1,3-dihydro-benzo[b][1,4]diazepin-2-one] |
| 223 to 227 | Cc1cc2c(cc1Cl)NC(=O)CC(c1cccc(-c3ncccn3)c1)=N2 [Example 335, 8-Chloro-7-methyl-4-(3-pyrimidin-2-yl-phenyl)-1,3-dihydro-benzo[b][1,4]diazepin-2-one] |
| 221 to 223 | CN(C)c1cc2c(cc1C(F)(F)F)NC(=O)CC(c1cccc(-c3ncccn3)c1)=N2 [Example 337, 7-Dimethylamino-4-(3-pyrimidin-2-yl-phenyl)-8-trifluoromethyl-1,3-dihydro-benzo[b][1,4]diazepin-2-one] |
| 236 to 237 | O=C1CC(c2cccc(-c3ncccn3)c2)=Nc2ccc(C(F)(F)F)cc2N1 [Example 338, 4-(3-Pyrimidin-2-yl-phenyl)-8-trifluoromethyl-1,3-dihydro-benzo[b][1,4]diazepin-2-one] |
| 217 to 222 | O=C1CC(c2cccc(-c3ncccn3)c2)=Nc2ccc(Cl)cc2N1 [Example 339, 8-Chloro-4-(3-pyrimidin-2-yl-phenyl)-1,3-dihydro-benzo[b][1,4]diazepin-2-one] |
| 227 to 230 | O=C1CC(c2cccc(-c3ncccn3)c2)=Nc2cc(Cl)c(Cl)cc2N1 [Example 340, 7,8-Dichloro-4-(3-pyrimidin-2-yl-phenyl)-1,3-dihydro-benzo[b][1,4]diazepin-2-one] |
| 233 to 236 | Cc1nnc(-c2cccc(C3=Nc4cc(N(C)C)c(C(F)(F)F)cc4NC(=O)C3)c2)nc1C [Example 343, 7-Dimethylamino-4-[3-(5,6-dimethyl-[1,2,4]triazin-3-yl)-phenyl]-8-trifluoromethyl-1,3-dihydro-benzo[b][1,4]diazepin-2-one] |
| 119 | Cc1cc(C2CC2)ncc1-c1cccc(C2=Nc3ccc(C(F)(F)F)cc3NC(=O)C2)c1 [Example 344, 4-[3-(6-Cyclopropyl-4-methyl-pyridin-3-yl)-phenyl]-8-trifluoromethyl-1,3-dihydro-benzo[b][1,4]diazepin-2-one] |
| 181 | O=C1CC(c2cccc(-c3ccnc(C4CC4)c3)c2)=Nc2ccc(C(F)(F)F)cc2N1 [Example 346, 4-[3-(2-Cyclopropyl-pyridin-4-yl)-phenyl]-8-trifluoromethyl-1,3-dihydro-benzo[b][1,4]diazepin-2-one] |
| 232 | Cc1cc2c(cc1C(F)(F)F)NC(=O)CC(c1cccc(-c3ccnc(C4CC4)c3)c1)=N2 [Example 347, 4-[3-(2-Cyclopropyl-pyridin-4-yl)-phenyl]-7-methyl-8-trifluoromethyl-1,3-dihydro-benzo[b][1,4]diazepin-2-one] |
| 244 | CCOc1cc2c(cc1C(F)(F)F)NC(=O)CC(c1cccc(-c3ccnc(C4CC4)c3)c1)=N2 [Example 348, 4-[3-(2-Cyclopropyl-pyridin-4-yl)-phenyl]-7-ethoxy-8-trifluoromethyl-1,3-dihydro-benzo[b][1,4]diazepin-2-one] |
| 218 | O=C1CC(c2cccc(-c3ccnc(C4CC4)c3)c2)=Nc2cc(OCC(F)(F)F)c(C(F)(F)F)cc2N1 [Example 349, 4-[3-(2-Cyclopropyl-pyridin-4-yl)-phenyl]-7-(2,2,2-trifluoro-ethoxy)-8-trifluoromethyl-1,3-dihydro-benzo[b][1,4]diazepin-2-one] |
| 205 to 211 | Cc1cc(-c2cccc(C3=Nc4cc(C5CC5)c(C(F)(F)F)cc4NC(=O)C3)c2)ccn1 [Example 350, 7-Cyclopropyl-4-[3-(2-methyl-pyridin-4-yl)-phenyl]-8-trifluoromethyl-1,3-dihydro-benzo[b][1,4]diazepin-2-one] |
| 218 to 219 | Cc1cc2c(cc1C(F)(F)F)NC(=O)CC(c1cccc(-c3ccnc(C4CCCC4)c3)c1)=N2 [Example 351, 4-[3-(2-Cyclopentyl-pyridin-4-yl)-phenyl]-7-methyl-8-trifluoromethyl-1,3-dihydro-benzo[b][1,4]diazepin-2-one] |
| 165 to 167 | O=C1CC(c2cccc(-c3ccnc(C4CCCC4)c3)c2)=Nc2ccc(C(F)(F)F)cc2N1 [Example 352, 4-[3-(2-Cyclopentyl-pyridin-4-yl)-phenyl]-8-trifluoromethyl-1,3-dihydro-benzo[b][1,4]diazepin-2-one] |
| 192 to 193 | CCOc1cc2c(cc1C(F)(F)F)NC(=O)CC(c1cccc(-c3ccnc(C4CCCC4)c3)c1)=N2 [Example 353, 4-[3-(2-Cyclopentyl-pyridin-4-yl)-phenyl]-7-ethoxy-8-trifluoromethyl-1,3-dihydro-benzo[b][1,4]diazepin-2-one] |
| 147 to 148 | O=C1CC(c2cccc(-c3ccnc(C4CCCC4)c3)c2)=Nc2cc(OCC(F)(F)F)c(C(F)(F)F)cc2N1 [Example 354, 4-[3-(2-Cyclopentyl-pyridin-4-yl)-phenyl]-7-(2,2,2-trifluoro-ethoxy)-8-trifluoromethyl-1,3-dihydro-benzo[b][1,4]diazepin-2-one] |
| 188 | Cc1cc2c(cc1C(F)(F)F)NC(=O)CC(c1cccc(-c3ccnc(CN(C)CC(C)C)c3)c1)=N2 [Example 360, 4-(3-{2-[(Isobutyl-methyl-amino)-methyl]-pyridin-4-yl}-phenyl)-7-methyl-8-trifluoromethyl-1,3-dihydro-benzo[b][1,4]diazepin-2-one] |
| 225 | COCc1cc(-c2cccc(C3=Nc4cc(C)c(C(F)(F)F)cc4NC(=O)C3)c2)ccn1 [Example 361, 4-[3-(2-Methoxymethyl-pyridin-4-yl)-phenyl]-7-methyl-8-trifluoromethyl-1,3-dihydro-benzo[b][1,4]diazepin-2-one] |
| 189 | Cc1cc(-c2cccc(C3=Nc4cc(N(C)CC(C)C)c(C(F)(F)F)cc4NC(=O)C3)c2)ccn1 [Example 362, 7-(Isobutyl-methyl-amino)-4-[3-(2-methyl-pyridin-4-yl)-phenyl]-8-trifluoromethyl-1,3-dihydro-benzo[b][1,4]diazepin-2-one] |
